The source of these data is ChEMBL document CHEMBL1135059, “Structure-activity relationships of novel anti-malarial agents. Part 3: N-(4-acylamino-3-benzoylphenyl)-4-propoxycinnamic acid amides” (Bioorg Med Chem Lett, 2002).

Experiment [1] relates to Plasmodium falciparum. As to the kind of experiment: microbe, parasite or virus in culture.
Description: Antimalarial activity against Plasmodium falciparum 3D7 in erythrocytes
Experiment [2] relates to Plasmodium falciparum. As to the kind of experiment: microbe, parasite or virus in culture. This is another data set of the same source.
Description: Antimalarial activity against Plasmodium falciparum Dd2 in erythrocytes

pIC50: −log10 of the molar value.

One may read the pIC50 as the negative decadic logarithm of the IC50, by convention in mol/L. As for `CCCOc1ccc(/C=C/C(=O)Nc2ccc(NC(=O)Cc3ccccc3C)c(C(=O)c3ccccc3)c2)cc1`, the pIC50 is 5.85 in the experiment on Plasmodium falciparum [1] and 5.62 in the experiment with Plasmodium falciparum [2].
The like results for `CCCOc1ccc(/C=C/C(=O)Nc2ccc(NC(=O)/C=C/c3ccc(OCCC)cc3)c(C(=O)c3ccccc3)c2)cc1` were, in that order, 4.70 and 4.64.
The like results for `CCCOc1ccc(/C=C/C(=O)Nc2ccc(NC(=O)Cc3ccc(C(F)(F)F)cc3)c(C(=O)c3ccccc3)c2)cc1` were, in that order, 7.00 and 6.92.
As for `CCCOc1ccc(/C=C/C(=O)Nc2ccc(NC(=O)Cc3ccccc3Br)c(C(=O)c3ccccc3)c2)cc1`, the negative logarithm of the IC50 (pIC50) was 5.70 in the experiment with Plasmodium falciparum [1] and 5.55 in the experiment on Plasmodium falciparum [2].
On the same counts, the results for `CCCOc1ccc(/C=C/C(=O)Nc2ccc(NC(=O)c3cccc4ccccc34)c(C(=O)c3ccccc3)c2)cc1` are 5.57 and 5.47.
On the same counts, the results for `CCCOc1ccc(/C=C/C(=O)Nc2ccc(NC(=O)Cc3ccc(Br)cc3)c(C(=O)c3ccccc3)c2)cc1` are 6.85 and 6.51.
For the compound `CCCOc1ccc(/C=C/C(=O)Nc2ccc(NC(=O)Cc3ccc(-c4ccccc4)cc3)c(C(=O)c3ccccc3)c2)cc1`, the pIC50 in the experiment on Plasmodium falciparum [1] was 4.72; in the experiment on Plasmodium falciparum [2] it was 4.62.
On the same counts, the results for `CCCOc1ccc(/C=C/C(=O)Nc2ccc(NC(=O)Cc3ccc(Cl)cc3)c(C(=O)c3ccccc3)c2)cc1` are 6.57 and 6.46.
The like results for `CCCOc1ccc(/C=C/C(=O)Nc2ccc(NC(=O)Cc3ccc(OC)cc3)c(C(=O)c3ccccc3)c2)cc1` were, in that order, 5.92 and 5.89.
The like results for `CCCOc1ccc(/C=C/C(=O)Nc2ccc(NC(=O)c3ccccc3)c(C(=O)c3ccccc3)c2)cc1` were, in that order, 5.19 and 5.05.
In the case of `CCCOc1ccc(/C=C/C(=O)Nc2ccc(NC(=O)Cc3ccccc3)c(C(=O)c3ccccc3)c2)cc1`, the figures for the negative logarithm of the IC50 (pIC50) in the experiment with Plasmodium falciparum [1] and in the experiment with Plasmodium falciparum [2] were 5.72 and 5.60, respectively.
The like results for `CCCOc1ccc(/C=C/C(=O)Nc2ccc(NC(=O)Cc3ccc(C)cc3)c(C(=O)c3ccccc3)c2)cc1` were, in that order, 6.60 and 6.47.
As to `CC1(C)N=C(N)N=C(N)N1c1ccc(Cl)cc1` [CYCLOGUANIL], the pIC50 with Plasmodium falciparum [1] was 8.12.
As to `CCCCN(CCCC)CC(O)c1cc(Cl)cc2c1-c1ccc(Cl)cc1C2=Cc1ccc(Cl)cc1` (centres undefined) [LUMEFANTRINE], the figures for the negative-log IC50 (pIC50) with Plasmodium falciparum [1] and in the experiment on Plasmodium falciparum [2] were 7.54 and 7.52, respectively.
As for `CCc1nc(N)nc(N)c1-c1ccc(Cl)cc1` [PYRIMETHAMINE], the negative logarithm of the IC50 (pIC50) with Plasmodium falciparum [1] was 8.52.
On to `C=C[C@H]1CN2CC[C@H]1C[C@H]2[C@H](O)c1ccnc2ccc(OC)cc12` [QUININE], for which, in the experiment with Plasmodium falciparum [1], the negative logarithm of the IC50 (pIC50) is 7.02.
